According to patent US20250296922A1, “POLYSUBSTITUTED PYRROLIDINE DERIVATIVE, PREPARATION METHOD THEREFOR AND USE THEREOF” (SHANGHAI WENNAI THERAPEUTICS CO LTD, priority 2023, published 2025):
Like-named read-outs stand apart in the source and are kept apart here.

Assays:
[1] = Pharmacokinetic experiment, dog test, intravenous injection; format: in vivo; conditions: male Beagle, 0.5 mg/kg
Excerpt: 4.2.1 Abstract: Beagle was used as the test animal, the LC/MS/MS method was applied to determine the drug concentration in the plasma of Beagle at different points after intravenous injection of the compounds of the examples, to study the pharmacokinetic behavior of the compounds of the present invention in the Beagle, and to evaluate their pharmacokinetic characteristics.
4.2.2.2 Test animals: 4 male Beagles, provided by Jiangsu LingfuZhaoshengyuan Biotechnology Co. Fasting started at 5 p.m. on the day before drug administration, and the duration of fasting was no less than 12 hours, and food was resumed 4 hours after drug administration.
4.2.2.3 Drug Preparation: Weighed an amount of the test compound and prepared a completely clear solution with a final concentration of 1 mg/mL using a mixed solvent of DMSO: Solutol: Saline (5%: 5%: 90%).
4.2.2.4 Administration: a dose of 0.5 mg/kg, a volume of 0.5 mL/kg.
4.2.3 Test operation: 0.4 mL of blood samples were collected from the forelimb vein of male Beagles before and 5 min, 15 min, 30 min, 1 h, 2h, 4 h, 6h, 8 h, 10 h and 24 h after intravenous administration and placed in EDTA-K2 anticoagulant tubes. After blood samples were collected, they were placed in labelled centrifuge tubes in ice water bath and rapidly centrifuged to separate the plasma. Centrifugation conditions: 4000 rpm, 10 min, 4° C., and the plasma was placed at −70° C. or below for measurement.
Plasma samples were thawed at room temperature and 50 μL was added to 400 μL of acetonitrile containing the internal standard (40 ng/mL, terfenadine), vortexed for 1 min and then centrifuged at 15400 g for 10 min at 4° C. The supernatant was diluted 10-fold with 80% acetonitrile in water and 1 μL sample was injected for analysis.

CYP3A-M = CYP3A-M (Homo sapiens, UniProt P08684); assay: Human liver microsomal CYP inhibition test, CYP3A-M (midazolam); format: in vitro ADME; conditions: human liver microsomes 0.2 mg/mL; substrate Midazolam
CYP3A-M, sequence (P08684 2-503 limits assumed): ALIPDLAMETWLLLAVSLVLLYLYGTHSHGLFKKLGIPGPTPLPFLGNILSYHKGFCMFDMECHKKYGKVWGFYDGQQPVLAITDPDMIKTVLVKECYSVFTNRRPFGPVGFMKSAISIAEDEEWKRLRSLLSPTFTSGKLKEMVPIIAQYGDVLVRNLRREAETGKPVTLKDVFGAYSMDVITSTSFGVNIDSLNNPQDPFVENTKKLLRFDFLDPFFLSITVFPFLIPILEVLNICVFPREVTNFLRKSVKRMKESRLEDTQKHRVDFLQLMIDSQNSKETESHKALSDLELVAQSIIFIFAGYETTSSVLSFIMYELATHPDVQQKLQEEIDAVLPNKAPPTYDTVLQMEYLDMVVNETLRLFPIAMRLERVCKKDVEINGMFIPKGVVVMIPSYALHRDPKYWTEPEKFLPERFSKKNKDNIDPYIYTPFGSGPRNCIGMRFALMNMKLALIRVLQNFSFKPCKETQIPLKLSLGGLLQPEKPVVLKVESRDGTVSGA
Description: (§1) 3.1 Buffer solutions: (1) potassium phosphate 100 mM; (2) magnesium chloride, 33 mM;
(§2) 3.2.3 Reservoir for compounds to be tested: Dissolving the compounds to be tested in DMSO to form a 10 mM DMSO solution.
(§3) 3.4.1 Preparation of human liver microsomal working solution (1.27×) (final concentration: 0.2 mg/mL)
(§4) 3.5.3 Adding 20 μL of substrate solution to the appropriate wells and 20 μL of potassium phosphate buffer to the blank wells;
(§5) 3.5.4 Adding 2 μL of different concentrations of target compounds (final concentrations from 0.05 μM to 50 μM, 7 concentrations in total) or standard inhibitors to each well, with 2 μL of methanol solution in the non-inhibitor and blank wells;
(§6) 3.5.5 Adding 1.012 mL of liver microsomes to 78.988 mL of potassium phosphate buffer, then adding 158 μL of liver microsomes solution to all wells; preheating the well plate for 10 minutes in a 37° C. water bath;
(§7) 3.5.6 Weighing 129.1 mg NADPH (purchased from SyncoZymes Co. Ltd.) and adding to 15.0 mL of 33 Mm MgCl2 solution to give a 10 mM concentration, adding 20 μL to each well;
(§8) 3.5.7 Mixing and incubating the well plate in a 37° C. water bath for 10 minutes, then adding 400 μL of cold termination solution at the appropriate time point;
(§9) 3.5.8 Centrifuging the sample at 4000 rpm for 20 minutes to precipitate the protein. Transferring 200 μL of supernatant to 100 μL of HPLC water and shaking for 10 minutes. The samples were analyzed by LC/MS/MS;
(§10) Percentage inhibition was plotted for blank control and different concentrations of target compounds by using XL fitting or SigmaPlot and the data were analyzed by non-linear regression. IC50 values were determined by using either 3-parameter or 4-parameter logistic equations.

[2] = Pharmacokinetic experiment, rat test, gavage administration; format: in vivo, SD rats; conditions: 10 mg/kg; for AUC(0-t) / Cmax: Sprague-Dawley, rat, plasma, po; for AUC(0-t): read-out: Area under the curve AUC0-t; for Cmax: read-out: blood concentration Cmax
Excerpt: 4.1.1 Abstract: SD rats were used as test animals, the LC/MS/MS method was applied to determine the drug concentration of the compounds of the Examples in plasma at different points after gavage administration to rats, to study the pharmacokinetic behavior of the compounds of the present invention in rats, and to evaluate their pharmacokinetic characteristics.
4.1.2.2 Test animals: 6 male SD rats and 6 female rats, all provided by Shanghai Jihui Laboratory Animal Breeding Co. The animals were fasted for at least 12 hours before administration and food supply was resumed 4 hours after administration.
4.1.2.3 Drug Preparation: Weighed an amount of the test compound separately and prepared a completely clear solution with a final concentration of 1 mg/mL using a mixed solvent of DMSO: Solutol: Saline (5%: 5%: 90%).
4.1.2.4 Administration: a dose of 10 mg/kg, a volume of 10 mL/kg.
4.1.3 Test operation: 0.1 mL blood samples were collected from the orbit before and 15 min, 30 min, 1 h, 2h, 4 h, 6h, 8 h, 10h, 24 h after the administration of the drug to male rats and placed in EDTA-K2 anticoagulant tubes. 0.03 mL blood samples were collected from the orbit before and 0.5h, 1 h, 2h, 3 h, 6h, 10 h and 24 h after administration to female rats. After blood samples were collected, they were placed in labelled centrifuge tubes in ice-water bath and rapidly centrifuged to separate the plasma at 4000 rpm for 10 min at 4° C. The plasma was stored at −70° C. or below for measurement.
The plasma samples were thawed at room temperature and 50 μL was added to 400 μL of acetonitrile containing the internal standard (40 ng/mL, terfenadine), vortexed for 1 min and centrifuged for 10 min at 4° C. and 15,400 g. 1 μL of the supernatant was injected for analysis.

CYP3A (printed CYP3A-M) = CYP3A (printed CYP3A-M) (Homo sapiens, UniProt P08684); assay: Human liver microsomal CYP inhibition test, CYP3A-M (midazolam); format: in vitro ADME
CYP3A (printed CYP3A-M), sequence (P08684 2-503 limits assumed): as above
Description: as §1, §2, §3, §4, §5, §6, §7, §8, §9, §10

4-((2R,3S,4S,5R)-3-(3,4-difluoro-2-(methoxy-d3)phenyl)-4,5-dimethyl-5-(trifluoromethyl) pyrrolidine-2-carboxamido)pyridinamide [Compound 11]
Area under the curve AUC0-t [1]: 15644 ng·h/mL | Clearance CL [1]: 0.134 mL/min/kg | half-life t½ [1]: 57.4 h | IC50 (CYP3A-M): > 50 µM | Area under the curve AUC0-t ([2]; female SD rats): 23809 ng·h/mL | blood concentration Cmax ([2]; female SD rats): 1850 ng/mL | Area under the curve AUC0-t ([2]; male SD rats): 4656 ng·h/mL | blood concentration Cmax ([2]; male SD rats): 1006 ng/mL

COc1c([C@H]2[C@H](C(=O)Nc3ccc[n+]([O-])c3)N[C@@](C)(C(F)(F)F)[C@H]2C)ccc(F)c1F [Compound 7, 3-((2R,3S,4S,5R)-3-(3,4-difluoro-2-methoxyphenyl)-4,5-dimethyl-5-(trifluoromethyl)pyrrolidine-2-carboxamido)pyridine 1-oxide]
IC50 at 10 min (CYP3A (printed CYP3A-M); probe Midazolam, human liver microsomes 0.2 mg/mL, substrate Midazolam, read-out: IC50 (μM) CYP3A-M): 30.9 µM

COc1c([C@H]2[C@H](C(=O)Nc3cccc(S(N)(=O)=O)c3)N[C@@](C)(C(F)(F)F)[C@H]2C)ccc(F)c1F [Compound 8, (2R,3S,4S,5R)-3-(3,4-difluoro-2-methoxyphenyl)-4,5-dimethyl-aza-(3-aminosulfonylphenyl)-5-(trifluoromethyl) pyrrolidine-2-carboxamide]
IC50 (CYP3A-M): 26.2 µM

COc1c([C@H]2[C@H](C(=O)Nc3ccnc(C(N)=O)c3)O[C@@](C)(C(F)(F)F)[C@H]2C)ccc(F)c1F [VX-548, reference compound]
AUC(0-t) ([1]; dog, plasma, read-out: Area under the curve AUC0-t): 11100 ng·h/mL | clearance ([1]; dog, plasma, read-out: Clearance CL (converted)): 0.438 mL/min/kg | half-life ([1]; dog, plasma, read-out: half-life t½ (converted)): 19.7 h | IC50 at 10 min (CYP3A (printed CYP3A-M); human, microsomes): > 50 µM | AUC(0-t) ([2]; female SD rats): 10900 ng·h/mL | Cmax ([2]; female SD rats): 719 ng/mL | AUC(0-t) ([2]; male SD rats): 1210 ng·h/mL | Cmax ([2]; male SD rats): 385 ng/mL
